The NIST ThermoML archive (doi:10.1016/j.jct.2015.09.004)
± gives the expanded uncertainty stated by the source.

How the values were obtained:
[1] = for vapor or sublimation pressure: Closed cell (Static) method; for Normal melting temperature: DTA
[2] = Molar enthalpy of transition or fusion; details: Crystal; DSC

CC(=O)c1ccc(F)cc1 [1-(4-fluorophenyl)ethanone]
[1]
Details | vapor or sublimation pressure [kPa]
255.13 K, Metastable liquid | 0.00086 ± 0.0001
256.87 K, Metastable liquid | 0.00104 ± 0.0001
258.79 K, Metastable liquid | 0.00128 ± 0.0001
260.76 K, Metastable liquid | 0.00157 ± 0.00011
262.72 K, Metastable liquid | 0.00193 ± 0.00012
264.7 K, Metastable liquid | 0.00233 ± 0.00013
266.63 K, Metastable liquid | 0.00285 ± 0.00014
268.62 K, Metastable liquid | 0.00348 ± 0.00017
270.62 K, Liquid | 0.00417 ± 0.00019
272.54 K, Liquid | 0.00501 ± 0.00022
274.51 K, Liquid | 0.00603 ± 0.00025
276.49 K, Liquid | 0.00725 ± 0.0003
278.49 K, Liquid | 0.00865 ± 0.00035
280.5 K, Liquid | 0.01035 ± 0.00042
282.42 K, Liquid | 0.01227 ± 0.00049
284.44 K, Liquid | 0.01455 ± 0.00054
286.42 K, Liquid | 0.01723 ± 0.00058
288.39 K, Liquid | 0.02022 ± 0.00062
290.38 K, Liquid | 0.02379 ± 0.00068
292.34 K, Liquid | 0.02795 ± 0.00074
294.31 K, Liquid | 0.03279 ± 0.00082
296.34 K, Liquid | 0.03807 ± 0.0009
298.27 K, Liquid | 0.04465 ± 0.001
300.3 K, Liquid | 0.05171 ± 0.0011
302.24 K, Liquid | 0.06005 ± 0.0012
304.2 K, Liquid | 0.06895 ± 0.0014
306.15 K, Liquid | 0.07985 ± 0.0015
308.16 K, Liquid | 0.09146 ± 0.0017
310.15 K, Liquid | 0.1056 ± 0.0019

Details | Normal melting temperature [°C]
[1], Crystal | -4 ± 0.4

Details | Molar enthalpy of transition or fusion [kcal/mol]
[2] | 3.39 ± 0.0956

CC(=O)c1ccc(Br)cc1 [4'-bromoacetophenone]
[1]
Details | vapor or sublimation pressure [kPa]
295.3 K, Crystal | 0.00115 ± 0.00011
297.26 K, Crystal | 0.00142 ± 0.00012
299.2 K, Crystal | 0.00175 ± 0.00012
301.22 K, Crystal | 0.00219 ± 0.00013
303.17 K, Crystal | 0.00269 ± 0.00015
305.12 K, Crystal | 0.00341 ± 0.00017
305.14 K, Metastable liquid | 0.00501 ± 0.00022
307.11 K, Crystal | 0.00418 ± 0.0002
307.13 K, Metastable liquid | 0.00591 ± 0.00025
309.13 K, Crystal | 0.00512 ± 0.00023
309.14 K, Metastable liquid | 0.00699 ± 0.00029
311.05 K, Crystal | 0.00632 ± 0.00027
311.08 K, Metastable liquid | 0.0082 ± 0.00034
312.97 K, Metastable liquid | 0.00953 ± 0.00039
313.08 K, Crystal | 0.00777 ± 0.00032
315.05 K, Crystal | 0.00949 ± 0.00039
315.06 K, Metastable liquid | 0.01125 ± 0.00045
317.04 K, Crystal | 0.01155 ± 0.00046
317.08 K, Metastable liquid | 0.01318 ± 0.00052
319.04 K, Crystal | 0.0141 ± 0.00053
319.06 K, Metastable liquid | 0.01542 ± 0.00055
321.03 K, Metastable liquid | 0.01778 ± 0.00059
322.97 K, Metastable liquid | 0.02065 ± 0.00063
324.98 K, Metastable liquid | 0.02389 ± 0.00068
327.07 K, Liquid | 0.02782 ± 0.00074
328.92 K, Liquid | 0.03179 ± 0.0008
331.01 K, Liquid | 0.03679 ± 0.00088
333 K, Liquid | 0.04238 ± 0.00097
334.94 K, Liquid | 0.04849 ± 0.0011
336.95 K, Liquid | 0.05561 ± 0.0012
338.92 K, Liquid | 0.06344 ± 0.0013
340.91 K, Liquid | 0.07228 ± 0.0014
342.92 K, Liquid | 0.08249 ± 0.0016
344.85 K, Liquid | 0.09385 ± 0.0018
346.83 K, Liquid | 0.1056 ± 0.0019
348.79 K, Liquid | 0.1197 ± 0.0022
350.66 K, Liquid | 0.1346 ± 0.0021
352.73 K, Liquid | 0.1529 ± 0.0022
354.58 K, Liquid | 0.1698 ± 0.0023
356.66 K, Liquid | 0.1927 ± 0.0025
358.51 K, Liquid | 0.2158 ± 0.0027
360.62 K, Liquid | 0.2427 ± 0.0029
362.46 K, Liquid | 0.27 ± 0.0032
364.54 K, Liquid | 0.3031 ± 0.0034
366.57 K, Liquid | 0.3388 ± 0.0037
368.54 K, Liquid | 0.3774 ± 0.0041
370.53 K, Liquid | 0.4201 ± 0.0044
372.5 K, Liquid | 0.4659 ± 0.0048
374.46 K, Liquid | 0.5142 ± 0.0053
376.43 K, Liquid | 0.5712 ± 0.0058
378.39 K, Liquid | 0.6312 ± 0.0063

Details | Normal melting temperature [°C]
[1], Crystal | 51.1 ± 0.4

Details | Molar enthalpy of transition or fusion [kcal/mol]
[2] | 4.57 ± 0.12

CC(=O)c1ccc(Cl)cc1 [4'-chloroacetophenone]
[1]
Details | vapor or sublimation pressure [kPa]
271.56 K, Metastable liquid | 0.00065 ± 0.0001
273.59 K, Metastable liquid | 0.00081 ± 0.0001
275.52 K, Metastable liquid | 0.00098 ± 0.0001
277.47 K, Metastable liquid | 0.00118 ± 0.00011
279.48 K, Metastable liquid | 0.00144 ± 0.00011
281.51 K, Metastable liquid | 0.00176 ± 0.00012
283.42 K, Metastable liquid | 0.0021 ± 0.00013
285.45 K, Metastable liquid | 0.00256 ± 0.00014
287.39 K, Metastable liquid | 0.00305 ± 0.00016
289.34 K, Metastable liquid | 0.00364 ± 0.00017
291.32 K, Liquid | 0.00437 ± 0.0002
293.32 K, Liquid | 0.00519 ± 0.00023
295.29 K, Liquid | 0.00616 ± 0.00026
297.26 K, Liquid | 0.00729 ± 0.0003
299.24 K, Liquid | 0.00863 ± 0.00035
301.19 K, Liquid | 0.01012 ± 0.00041
303.21 K, Liquid | 0.01198 ± 0.00048
305.16 K, Liquid | 0.01396 ± 0.00053
307.18 K, Liquid | 0.01629 ± 0.00056
309.12 K, Liquid | 0.01902 ± 0.00061
311.1 K, Liquid | 0.02236 ± 0.00066
313.1 K, Liquid | 0.02596 ± 0.00071
315.07 K, Liquid | 0.03015 ± 0.00078
317.04 K, Liquid | 0.03486 ± 0.00085
319.07 K, Liquid | 0.04049 ± 0.00094
321 K, Liquid | 0.04613 ± 0.001
323.09 K, Liquid | 0.05334 ± 0.0011
325.1 K, Liquid | 0.0612 ± 0.0013
327.08 K, Liquid | 0.06999 ± 0.0014
329.05 K, Liquid | 0.07991 ± 0.0015
331.04 K, Liquid | 0.09133 ± 0.0017
333 K, Liquid | 0.1037 ± 0.0019
334.98 K, Liquid | 0.1174 ± 0.0021

Details | Normal melting temperature [°C]
[1], Crystal | 17.2 ± 0.4

Details | Molar enthalpy of transition or fusion [kcal/mol]
[2] | 3.66 ± 0.0956

CC(=O)c1ccc(I)cc1 [para-iodoacetophenone]
[1]
Details | vapor or sublimation pressure [kPa]
313.07 K, Crystal | 0.00086 ± 0.00011
315.1 K, Crystal | 0.00108 ± 0.00012
317.07 K, Crystal | 0.00134 ± 0.00012
319.04 K, Crystal | 0.00166 ± 0.00013
321.02 K, Crystal | 0.00205 ± 0.00014
323.02 K, Crystal | 0.00253 ± 0.00015
325.06 K, Crystal | 0.00313 ± 0.00017
326.98 K, Crystal | 0.00382 ± 0.00019
329.06 K, Crystal | 0.00477 ± 0.00022
330.99 K, Crystal | 0.00578 ± 0.00025
333.01 K, Crystal | 0.0071 ± 0.0003
334.95 K, Crystal | 0.00856 ± 0.00035
336.96 K, Crystal | 0.01043 ± 0.00042
338.87 K, Crystal | 0.01256 ± 0.0005
340.91 K, Crystal | 0.01528 ± 0.00055
342.83 K, Crystal | 0.01834 ± 0.0006
344.76 K, Crystal | 0.02192 ± 0.00065
346.73 K, Crystal | 0.02634 ± 0.00072
348.73 K, Crystal | 0.03176 ± 0.0008
348.73 K, Metastable liquid | 0.03831 ± 0.0009
350.7 K, Metastable liquid | 0.04337 ± 0.00098
350.71 K, Crystal | 0.03795 ± 0.0009
352.69 K, Metastable liquid | 0.04939 ± 0.0011
352.75 K, Crystal | 0.04537 ± 0.001
354.68 K, Metastable liquid | 0.05596 ± 0.0012
356.62 K, Metastable liquid | 0.06332 ± 0.0013
358.92 K, Liquid | 0.07293 ± 0.0014
360.65 K, Liquid | 0.08166 ± 0.0016
362.51 K, Liquid | 0.09128 ± 0.0017
364.59 K, Liquid | 0.1048 ± 0.0019
366.58 K, Liquid | 0.1171 ± 0.0021
368.51 K, Liquid | 0.131 ± 0.002
370.52 K, Liquid | 0.1458 ± 0.0021
372.41 K, Liquid | 0.1634 ± 0.0023
374.48 K, Liquid | 0.1829 ± 0.0024
376.36 K, Liquid | 0.2045 ± 0.0026
378.41 K, Liquid | 0.2281 ± 0.0028
380.39 K, Liquid | 0.2553 ± 0.003
382.37 K, Liquid | 0.2831 ± 0.0033
384.3 K, Liquid | 0.3146 ± 0.0035
386.31 K, Liquid | 0.3478 ± 0.0038
388.27 K, Liquid | 0.3882 ± 0.0042
389.83 K, Liquid | 0.42 ± 0.0044
392.22 K, Liquid | 0.4723 ± 0.0049
394.17 K, Liquid | 0.5188 ± 0.0053
396.15 K, Liquid | 0.5726 ± 0.0058
398.12 K, Liquid | 0.6279 ± 0.0062
399.98 K, Liquid | 0.6883 ± 0.0068
402.04 K, Liquid | 0.7599 ± 0.0074

Details | Normal melting temperature [°C]
[1], Crystal | 84.5 ± 0.4

Details | Molar enthalpy of transition or fusion [kcal/mol]
[2] | 5.62 ± 0.12
